In patent publication US6175020A, “Spirodiamino acid scaffold for combinatorial synthesis” (Pharmacopeia, Inc., priority 1999, dated 2001):

Target: plasmepsin II (Plasmodium falciparum, UniProt P46925)
Assay: Biological Assay for Plasmepsin II (EDANS fluorescence)
Assay type: biochemical
Conditions: 4 nM plasmepsin II, 6 μM plasmepsin substrate, pH 5.0, 10 minutes at 25° C.
Method: Biological Assay for Plasmepsin II
The assay mix contained 50 mM sodium acetate (pH 5.0), 1 mg/ml BSA, 0.01% Tween 20, 12.5% glycerol, 18% DMSO and 12 μM plasmepsin substrate. Twenty five μL of the assay mix is added to each well of the 96-well microtiter plate containing dried down bead eluate or empty control wells. The plates are then sonicated and mixed. Then 25 μL of 8 nM plasmepsin II which is in 50 mM sodium acetate (pH 5.0), 1 mg/ml BSA, 0.01% Tween 20, and 12.5% glycerol, is added to the assay mix. The final concentrations are 4 nM plasmepsin II, 6 μM plasmepsin substrate, 9% DMSO, 50 mM sodium acetate (pH 5.0), 1 mg/ml BSA, 0.01% Tween 20, and 12.5% glycerol. The reaction is incubated for 10 minutes at 25° C. and then quenched by the addition of 25 μL of 1 M Tris (pH 8.5) and 50% DMSO to achieve a final concentration of 0.33 M Tris and 23% DMSO. The EDANS fluorescence was measured using the Tecan, SLT FLUOSTAR® fluorescence plate reader with an excitation filter of 350 nm and an emission filter 510 nm. The background was determined by 25 μL of 50 mM sodium acetate (pH 5.0), 1 mg/ml BSA, 0.01% Tween 20, and 12.5% glycerol without enzyme. Compound 23 was active at <1 millimolar concentration.

Chain of plasmepsin II (P46925 125-453): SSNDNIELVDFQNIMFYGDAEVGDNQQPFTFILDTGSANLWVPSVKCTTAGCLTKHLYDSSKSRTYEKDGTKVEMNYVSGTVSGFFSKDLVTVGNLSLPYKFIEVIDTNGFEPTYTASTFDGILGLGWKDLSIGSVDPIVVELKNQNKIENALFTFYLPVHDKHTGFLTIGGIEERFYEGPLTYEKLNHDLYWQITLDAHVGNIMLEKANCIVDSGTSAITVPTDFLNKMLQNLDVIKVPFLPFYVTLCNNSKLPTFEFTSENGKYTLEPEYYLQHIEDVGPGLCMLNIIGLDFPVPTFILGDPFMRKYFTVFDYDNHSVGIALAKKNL

C=CCOC(=O)N1C(CC(=O)NCCc2cc(OC)cc(OC)c2)CCC12CCCC2CNC(=O)C[C@H](O)[C@H](CC(C)C)NC(=O)OC(C)(C)C (relative stereo) [Compound 23] was tested, and the “concentration at which compound was active” value was less than 1 millimolar and the IC50 (read-out: IC50 (plasmepsin inhibitor)) was less than 1000 µM.
